Values quoted from earlier work as cited in patent publication US20070259820A1, “METHODS AND REAGENTS FOR ACTIVATING HEAT SHOCK PROTEIN 70” (THE REGENTS OF THE UNIVERSITY OF MICHIGAN, priority 2006, published 2007).

Key:
Hsp70 [1] = conditions: prior-art statement in background
Hsp70 [2] = conditions: prior-art statement in background; remark: listed apart in the source

Compound | effect on Hsp70's ATPase activity (Hsp70 [1]) | binding to Hsp70 in "pull-down" studies (Hsp70 [2])
N=C(N)NCCCCCCC(=O)NC(O)C(=O)NCCCCNCCCN (centres unmarked) [15-deoxyspergualin] | stimulate Hsp70's ATPase activity | 
NCCCNCCCCNC(=O)[C@H](O)NC(=O)C[C@@H](O)CCCCN=C(N)N [spergaulin] |  | bind Hsp70
